A word on the Ki: it is the equilibrium dissociation constant of an inhibitor or competing ligand from its target.

In patent US10780092B2, “Fused pyrazine derivatives useful as soluble guanylate cyclase stimulators” (Merck Sharp & Dohme Corp., priority 2016, dated 2020) one finds Emax, EC50 and Ki data, which are given here for 16 compounds.

In one test the target is sGC α1/β1 heterodimer (Homo sapiens (Human), UniProt Q02108+Q02153). The test can be described thus: Cell-based sGC functional assay (CASA assay), cGMP by HTRF. As to conditions: CHO-K1/sGC cells; for Emax: CHO-K1, cGMP production as percentage of maximum of compound A (set to 100%), read-out: % Activation; for EC50: inflection point of cGMP production, 4P fit, read-out: IP. Summed up: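 cGMP made in CHO-K1/sGC (human α1/β1) cells is read by HTRF after compound treatment for 1 hr at 37° C, following 30 min at 25° C with or without 1 μM DETA-NO; IBMX 0.5 mM present. Values are % of standard compound maximum; 4P fit.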
On the technique in general: TR-FRET usually uses a lanthanide donor and a delayed reading to cut background.

The target in test [1] is human recombinant sGC enzyme (Homo sapiens (Human), UniProt Q02108+Q02153). The test can be described thus: SEC competition binding assay with [3H] Compound B radioligand. As to conditions: displacement of 1.6 nM [3H] Compound B, 24 h at 37° C. Put shortly:
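Competition format: [3H] Compound B (1.6 nM) displaced from human recombinant sGC over 24 h at 37° C. in triethanolamine pH 7.4 buffer with MgCl2, BSA, DTT, 300 μM DETA/NO and 400 μM GTP (1% DMSO). Gel-filtration eluates counted by liquid scintillation; 1 μM Compound B defined non-specific binding; Ki by one-site fit.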

For `CC1(c2ccc(C(F)(F)F)c(O)c2)C(=O)Nc2nc(-c3cn4ccnc4c(Cc4cc(F)cc(F)c4)n3)nc(N)c21` (stereo not drawn) [Example 46-B, 4-Amino-2-{8-[(3,5-difluorophenyl)methyl]imidazo[1,2-a]pyrazin-6-yl}-5-(3-hydroxy-4-(trifluoromethyl)phenyl)-5-methyl-5,7-dihydro-6H-pyrrolo[2,3-d]pyrimidin-6-one], on sGC α1/β1 heterodimer, the Emax was 117% and the EC50 was 0.893 µM. Further, the inhibition constant (Ki) in test [1] was found to be 0.000691 µM.
The like results for `CC(C)CCc1nc(-c2nc(N)c3c(n2)NC(=O)C3(C)c2ccc(F)c(O)c2)cn2ccnc12` (stereo not drawn) [Example 47-B, 4-Amino-5-(4-fluoro-3-hydroxyphenyl)-2-(8-isopentylimidazo[1,2-a]pyrazin-6-yl)-5-methyl-5,7-dihydro-6H-pyrrolo[2,3-d]pyrimidin-6-one] were, in that order, 103%, 0.07 µM and 0.000676 µM.
Take `CC1(c2cccc(O)c2)C(=O)Nc2nc(-c3cn4ccnc4c(Cc4cc(F)cc(F)c4)n3)nc(N)c21` (stereo not drawn) [Example 48-B, 4-Amino-2-{8-[(3,5-difluorophenyl)methyl]imidazo[1,2-a]pyrazin-6-yl}-5-(3-hydroxyphenyl)-5-methyl-5,7-dihydro-6H-pyrrolo[2,3-d]pyrimidin-6-one]: at sGC α1/β1 heterodimer, the Emax amounted to 114% and the EC50 was determined as 0.198 µM. The Ki in test [1] was found to be 0.000723 µM.
In the case of `CC1(c2ccc(Cl)c(O)n2)C(=O)Nc2nc(-c3cn4ccnc4c(CC4CCCCC4)n3)nc(N)c21` (stereo not drawn) [Example 49-A, 4-Amino-5-(5-chloro-6-hydroxypyridin-2-yl)-2-(8-(cyclohexylmethyl)imidazo[1,2-a]pyrazin-6-yl)-5-methyl-5,7-dihydro-6H-pyrrolo[2,3-d]pyrimidin-6-one], on sGC α1/β1 heterodimer, the Emax is 111% and the EC50 was found to be 0.363 µM. For the same compound, the inhibition constant Ki in test [1] amounted to 0.000746 µM.
In the case of `CCCCc1nc(-c2nc(N)c3c(n2)NC(=O)C3(C)c2ccc(Cl)c(O)c2)cn2ncnc12` (stereo not drawn) [Example 50-A, 4-Amino-2-(8-butyl-[1,2,4]triazolo[1,5-a]pyrazin-6-yl)-5-(4-chloro-3-hydroxyphenyl)-5-methyl-5,7-dihydro-6H-pyrrolo[2,3-d]pyrimidin-6-one], on sGC α1/β1 heterodimer, the Emax is 175% and the EC50 stood at 0.07 µM. In addition, the Ki in test [1] came to 0.000775 µM.
`CCCCc1nc(-c2nc(N)c3c(n2)NC(=O)C3(C)c2ccc(Cl)c(O)c2)cn2ccnc12` (stereo not drawn) [Example 52-A, 4-Amino-2-(8-butylimidazo[1,2-a]pyrazin-6-yl)-5-(4-chloro-3-hydroxyphenyl)-5-methyl-5,7-dihydro-6H-pyrrolo[2,3-d]pyrimidin-6-one]: at sGC α1/β1 heterodimer, the Emax stood at 85% and the EC50 was 0.144 µM. Besides, the Ki in test [1] is 0.000864 µM.
For `CC(C)CCc1nc(-c2nc(N)c3c(n2)NC(=O)C3(C)c2ccc(O)c(F)c2)cn2ccnc12` (stereo not drawn) [Example 54-B, 4-Amino-5-(3-fluoro-4-hydroxyphenyl)-2-(8-isopentylimidazo[1,2-a]pyrazin-6-yl)-5-methyl-5,7-dihydro-6H-pyrrolo[2,3-d]pyrimidin-6-one], at sGC α1/β1 heterodimer, the Emax stood at 72% and the EC50 is 0.042 µM. Moreover, the Ki in test [1] was 0.00108 µM.
`CC1(c2ccc(Cl)c(O)c2)C(=O)Nc2nc(-c3cn4ccnc4c(CCCC(F)(F)F)n3)nc(N)c21` (stereo not drawn) [Example 55-A, 4-Amino-5-(4-chloro-3-hydroxyphenyl)-5-methyl-2-(8-(4,4,4-trifluorobutyl)imidazo[1,2-a]pyrazin-6-yl)-5,7-dihydro-6H-pyrrolo[2,3-d]pyrimidin-6-one]: on sGC α1/β1 heterodimer, the Emax was found to be 113% and the EC50 turned out to be 0.969 µM. Also, the inhibition constant Ki in test [1] came out at 0.00121 µM.
For the compound `CC1(c2cccc(O)c2)C(=O)Nc2nc(-c3cn4ccnc4c(Cc4ccc(Cl)cc4)n3)nc(N)c21` (stereo not drawn) [Example 56-B, 4-Amino-2-{8-[(4-chlorophenyl)methyl]imidazo[1,2-a]pyrazin-6-yl}-5-(3-hydroxyphenyl)-5-methyl-5,7-dihydro-6H-pyrrolo[2,3-d]pyrimidin-6-one], at sGC α1/β1 heterodimer, the Emax was 101% and the EC50 is 0.627 µM. Further, the Ki in test [1] was found to be 0.00124 µM.
The like results for `CC(C)CCc1nc(-c2nc(N)c3c(n2)NC(=O)C3(C)c2cc(O)c(Cl)cn2)cn2ccnc12` (stereo not drawn) [Example 57-B, 4-Amino-5-(5-chloro-4-hydroxypyridin-2-yl)-2-(8-isopentylimidazo[1,2-a]pyrazin-6-yl)-5-methyl-5,7-dihydro-6H-pyrrolo[2,3-d]pyrimidin-6-one] were, in that order, 67%, 0.798 µM and 0.00124 µM.
`CC(C)CCc1nc(-c2nc(N)c3c(n2)NC(=O)C3(C)c2ccc(O)cc2)cn2ccnc12` (stereo not drawn) [Example 58-B, 4-Amino-5-(4-hydroxyphenyl)-2-(8-isopentylimidazo[1,2-a]pyrazin-6-yl)-5-methyl-5,7-dihydro-6H-pyrrolo[2,3-d]pyrimidin-6-one]: on sGC α1/β1 heterodimer, the Emax is 121% and the EC50 was determined as 0.164 µM. Moreover, in test [1], the inhibition constant (Ki) was determined as 0.00154 µM.
As for `CC(C)CCc1nc(-c2nc(N)c3c(n2)NC(=O)C3(C)c2cccc(O)c2)cn2ccnc12` (stereo not drawn) [Example 59-B, 4-Amino-5-(3-hydroxyphenyl)-2-(8-isopentylimidazo[1,2-a]pyrazin-6-yl)-5-methyl-5,7-dihydro-6H-pyrrolo[2,3-d]pyrimidin-6-one], on sGC α1/β1 heterodimer, the Emax came out at 109% and the EC50 was found to be 0.335 µM. The Ki in test [1] is 0.00172 µM.
Regarding `CC1(c2ccc(O)c(Cl)c2)C(=O)Nc2nc(-c3cn4ccnc4c(Cc4ccc(F)cc4)n3)nc(N)c21` (stereo not drawn) [Example 60-B, 4-Amino-5-(3-chloro-4-hydroxyphenyl)-2-{8-[(4-fluorophenyl)methyl]imidazo[1,2-a]pyrazin-6-yl]-5-methyl-5,7-dihydro-6H-pyrrolo[2,3-d]pyrimidin-6-one], at sGC α1/β1 heterodimer, the Emax amounted to 138% and the EC50 was found to be 4.38 µM. Besides, the inhibition constant Ki in test [1] came to 0.00192 µM.
On to `CCCCc1nc(-c2nc(N)c3c(n2)NC(=O)C3(C)c2ccc(C(F)(F)F)c(O)c2)cn2ncnc12` (stereo not drawn) [Example 61-B, 4-Amino-2-(8-butyl-[1,2,4]triazolo[1,5-a]pyrazin-6-yl)-5-(3-hydroxy-4-(trifluoromethyl)phenyl)-5-methyl-5,7-dihydro-6H-pyrrolo[2,3-d]pyrimidin-6-one], for which, on sGC α1/β1 heterodimer, the Emax was 105% and the EC50 is 0.121 µM. Moreover, the Ki in test [1] worked out at 0.00209 µM.
As for `CCCCc1nc(-c2nc(N)c3c(n2)NC(=O)C3(C)c2ccc(F)c(O)c2)cn2ncnc12` (stereo not drawn) [Example 62-B, 4-Amino-2-(8-butyl-[1,2,4]triazolo[1,5-a]pyrazin-6-yl)-5-(4-fluoro-3-hydroxyphenyl)-5-methyl-5,7-dihydro-6H-pyrrolo[2,3-d]pyrimidin-6-one], at sGC α1/β1 heterodimer, the Emax amounted to 97% and the EC50 amounted to 0.049 µM. For the same compound, in test [1], the inhibition constant Ki was 0.00221 µM.
Take `CC1(c2ccc(Cl)c(O)c2)C(=O)Nc2nc(-c3cn4ccnc4c(CCC4CCCCC4)n3)nc(N)c21` (stereo not drawn) [Example 63-A, 4-Amino-5-(4-chloro-3-hydroxyphenyl)-2-(8-(2-cyclohexylethyl)imidazo[1,2-a]pyrazin-6-yl)-5-methyl-5,7-dihydro-6H-pyrrolo[2,3-d]pyrimidin-6-one]: on sGC α1/β1 heterodimer, the Emax amounted to 121% and the EC50 was 0.6 µM. Further, the inhibition constant (Ki) in test [1] is 0.0022 µM.
